{
  "source": "patent US20200222400A1",
  "about": "“METHODS FOR THE TREATMENT OF NEUROLOGICAL DISORDERS” (Yumanity Therapeutics, Inc., priority 2019, published 2020)",
  "key": {"yeast OLE1": {"biological_target": "T1, yeast OLE1 (Saccharomyces cerevisiae, UniProt P21147)", "T1 construct": "expressed in transfected cells; host or cells: S. cerevisiae ole1Δ strain (W303 pdr1Δ pdr3Δ background), pRS316 plasmid, TDH3 promoter", "T1 sequence (P21147 1-510)": "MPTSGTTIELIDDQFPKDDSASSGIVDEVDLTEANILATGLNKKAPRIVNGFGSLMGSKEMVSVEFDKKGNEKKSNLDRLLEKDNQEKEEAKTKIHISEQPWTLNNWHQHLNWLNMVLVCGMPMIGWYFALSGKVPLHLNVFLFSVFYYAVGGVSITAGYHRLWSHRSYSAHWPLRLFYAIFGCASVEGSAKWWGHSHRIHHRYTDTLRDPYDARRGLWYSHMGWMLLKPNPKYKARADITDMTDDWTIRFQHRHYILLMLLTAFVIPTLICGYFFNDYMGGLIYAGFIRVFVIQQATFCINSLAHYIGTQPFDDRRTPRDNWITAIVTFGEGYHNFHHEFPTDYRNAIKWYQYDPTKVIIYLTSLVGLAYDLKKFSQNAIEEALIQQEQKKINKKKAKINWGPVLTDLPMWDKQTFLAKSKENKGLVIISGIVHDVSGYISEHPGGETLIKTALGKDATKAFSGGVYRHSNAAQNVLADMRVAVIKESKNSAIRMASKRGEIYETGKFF", "assay": "Growth of yeast surviving solely on yeast OLE1", "assay_type": "cell-based", "conditions": "percent of DMSO-treated condition", "source_text": "To generate yeast strains expressing SCD1 or SCD5 as the sole desaturase, the human SCD1 and SCD5 genes were cloned from cDNAs (Harvard PlasmID database Clone ID HsCD00340237 for SCD1 and HsCD00342695 for SCD5) into yeast plasmid pRS316 (ATCC 77145) between the yeast TDH3 promoter and the CYC1 terminator. The coding sequence of yeast OLE1 was also cloned into this plasmid). These clones were then transformed into the ole1Δ strain and plated on CSM-Ura media (CSM lacking uracil) with 2% glucose (w/v) and independent colonies were isolated and amplified.\n(§1) All compound profiling experiments were performed using the same basic protocol. Different genetic backgrounds (e.g., gene deletions) or conditions (e.g., addition of oleic and palmitoleic acid) were replaced as indicated below.\nCompound stocks (10 mM in 100% DMSO) were arrayed into 384 round well, v-bottom polypropylene plates and diluted according to indicated dilution factors. Compound administration was performed in two separate steps. First, 15 μL of CSM-Galactose (induces expression of toxic protein) was dispensed into clear 384 well assay plates using a MULTIDROP™ Combi reagent dispenser. The diluted compound stock plates were then applied to the assay plates using an automated workstation (Perkin Elmer JANUS™) outfitted with a 384 pin tool containing slotted pins that deliver 100 nL of compound. The cultures described above were then diluted to a 2× concentration (0.03 and 0.08 for alpha-synuclein and ApoE, final OD600 of 0.015 and 0.04) in CSM-Galactose. For wild-type and Ole1/SCD1/SCD5 plasmid-containing strains, the 2× cell density was 0.02. In all experiments, 15 μL culture was then dispensed into the pinned assay plate to achieve 30 μL of the 1×OD600 culture and a top drug concentration of […]. For 96-well assays (FIGS. 2A and 2B), compound dilutions in DMSO were generated in 96 well plates and 1 μL was manually pipetted into 96 well clear bottom assay plates.\n(§2) For experiments using a plasmid-borne copy of Ole1, SCD1, or SCD5 (FIGS. 4B, 7, and 8), media lacking uracil (SX-Ura, where X is glucose, raffinose, or galactose), was used for all steps of the compound profiling protocol to ensure its maintenance throughout the assay.\nAfter yeast delivery, assay plates were incubated under humidified conditions at 30° C. for 24 to 40 h. ApoE4 rescue experiments were stopped at 24 h, aSyn experiments at 40 h, Ole1 at 24 h, and SCD1/SCD5 at 40 h. The growth of yeast was monitored by reading the OD600 of each well using a microplate reader (Perkin Elmer EnVision™). For model rescue experiments, raw data were processed by background subtracting and calculating a fold-change relative to DMSO control [(EXP−0.035)/(DMSO−0.035)—where 0.035 is the OD600 contributed by an empty well containing 30 μL of media alone]. For growth inhibition of wild-type cells, raw data were processed by background subtracting and converting values to a percent of the nontreated condition for that strain [(EXP−0.035)/(DMSO−0.035)×100%]."}, "human SCD1": {"biological_target": "T2, human SCD1 (Homo sapiens, UniProt O00767)", "T2 construct": "host or cells: S. cerevisiae ole1Δ strain (W303 pdr1Δ pdr3Δ background), pRS316 plasmid, TDH3 promoter", "T2 sequence (O00767 1-359)": "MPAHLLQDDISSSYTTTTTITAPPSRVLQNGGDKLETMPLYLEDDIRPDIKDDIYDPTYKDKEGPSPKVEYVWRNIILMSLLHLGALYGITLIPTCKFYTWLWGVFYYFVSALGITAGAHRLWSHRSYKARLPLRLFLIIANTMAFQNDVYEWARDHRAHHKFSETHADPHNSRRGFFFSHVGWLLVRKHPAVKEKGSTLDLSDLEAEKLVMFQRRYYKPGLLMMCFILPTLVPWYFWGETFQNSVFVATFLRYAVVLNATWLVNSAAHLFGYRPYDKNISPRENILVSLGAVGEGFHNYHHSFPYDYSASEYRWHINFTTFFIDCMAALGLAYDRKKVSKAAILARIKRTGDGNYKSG", "assay": "Growth of humanized yeast expressing human SCD1 as sole desaturase", "assay_type": "cell-based, humanized yeastized yeastized yeastized yeast", "conditions": "yeast growth", "protocol": "The coding sequence of yeast OLE1 was also cloned into this plasmid). These clones were then transformed into the ole1Δ strain and plated on CSM-Ura media (CSM lacking uracil) with 2% glucose (w/v) and independent colonies were isolated and amplified.\nas §1\nCompound administration was performed in two separate steps. First, 15 μL of CSM-Galactose (induces expression of toxic protein) was dispensed into clear 384 well assay plates using a MULTIDROP™ Combi reagent dispenser. […] The cultures described above were then diluted to a 2× concentration (0.03 and 0.08 for alpha-synuclein and ApoE, final OD600 of 0.015 and 0.04) in CSM-Galactose. For wild-type and Ole1/SCD1/SCD5 plasmid-containing strains, the 2× cell density was 0.02.\nas §2\nAfter yeast delivery, assay plates were incubated under humidified conditions at 30° C. for 24 to 40 h. ApoE4 rescue experiments were stopped at 24 h, aSyn experiments at 40 h, Ole1 at 24 h, and SCD1/SCD5 at 40 h. The growth of yeast was monitored by reading the OD600 of each well using a microplate reader (Perkin Elmer EnVision™)."}},
  "data": [
    {"smiles": "Cc1nnc(-c2ccc(N3CCC(Oc4cc(F)ccc4Cl)CC3)nn2)o1", "note": "[CAY10566]", "values": [
      {"measurement": "growth inhibition of yeast expressing OLE1", "setting": "yeast OLE1", "result": "resistant"},
      {"measurement": "half-maximal inhibitory concentration (IC50), SCD1 humanized strain", "setting": "human SCD1", "result": "low nanomolar"}
    ]}
  ]
}
